Legend:
[1] = pH of pravastatin Na crystals exposed to pure carbon dioxide in different packagings; format: physicochemical; settings: unstabilized pravastatin Na, carbon dioxide atmosphere, 5% aqueous solution
Method: Therefore the samples, in case of experiments where the correspondingly stabilised pravastatin was used, were exposed to the atmosphere of pure carbon dioxide, so the changes in pH become evident in a relatively short period of time such as a day or two.
The crystals were formed by addition of 400 ml of ethyl acetate containing 2% of water.

[2] = pH of unstabilized pravastatin Na crystals exposed to air atmosphere in different packagings; format: physicochemical; settings: for pH: exposed to air, pH measured in 5% aqueous solution
Method: Crystals of pravastatin Na were prepared as follows: […] The resulting clear yellow solution was cooled to 8°C and allowed to stand overnight. Formed radiating clusters of thin, long needle-like crystals were filtered, washed with ethyl acetate (20 ml) and dried. […]

[3] = Method: In Fig. 1a, a HPLC chromatogram of a freshly perpared sample of pravastating Na is shown. The same pravastating Na was exposed to carbon dioxide atmosphere for one hour, and then a further HPLC chromatogram was prepared (Fig. 1b).

Question: Which results are given for `CC[C@H](C)C(=O)O[C@H]1C[C@H](O)C=C2C=C[C@H](C)[C@H](CC[C@@H](O)C[C@@H](O)CC(=O)[O-])[C@H]21.[Na+]` [2a, pravastatin Na]?
Answer: pH ([1]; time 0 h): 7.60; pH ([1]; time 1 h): 7.30; pH ([1]; time 5 h): 7.14; pH ([1]; time 70 h): 7.14

Question: For `CC[C@H](C)C(=O)O[C@H]1C[C@H](O)C=C2C=C[C@H](C)[C@H](CC[C@@H](O)C[C@@H](O)CC(=O)[O-])[C@H]21.[Na+]` [1b, pravastatin Na], which pH ([2]; time 0 hours) is on record?
Answer: Its pH is 8.3.

Question: What about the pH ([2]; time 24 hours) of the same molecule?
Answer: The pH was 7.9.

Question: Which results are given for `CC[C@H](C)C(=O)O[C@H]1C[C@H](O)C=C2C=C[C@H](C)[C@H](CC[C@@H](O)C[C@@H](O)CC(=O)[O-])[C@H]21.[Na+]` [1a, pravastatin Na]?
Answer: pH ([2]; time 0 hours): 8.3; pH ([2]; time 24 hours): 7.6

Question: For `CC[C@H](C)C(=O)O[C@H]1C[C@H](O)C=C2C=C[C@H](C)[C@H](CC[C@@H](O)C[C@@H](O)CC(=O)[O-])[C@H]21.[Na+]` [pravastatin Na], which “degradation products (HPLC peaks)” value [3] is on record?
Answer: The value was “two different peaks in front of and three peaks after the peak of pravastatin Na appear”.

Question: And the pH of crystals ([2]; after one day)?
Answer: The pH of crystals was 7.6.

Question: What about the pH of crystals ([2]; freshly prepared crystals) of the same molecule?
Answer: Its pH of crystals is 8.3.

Reference: patent EP1296672B2, “STABLE PHARMACEUTICAL PRODUCT AND FORMULATION” (LEK Pharmaceuticals d.d., priority 2000, dated 2001)
